# Assay results from patent US6376497B1, “Antifungal azole derivatives having a fluorinated vinyl group and process for preparing same” (Korea Research Institute of Chemical Technology, priority 1999, dated 2002).
# Legend:
# Assay in all cases: In vitro antifungal activity, microbroth dilution MIC
# Format in all cases: cell-based
# [1] = system: Cryptococcus neoformans IFM. 40092; conditions: for Minimal inhibitory concentration (MIC): Cry. neoformans IFM. 40092, RPMI-1640, 35° C.; for Minimal inhibitory concentration(MIC), Cry. neoformans IFM. 40092: RPMI-1640, 35° C., no growth observed
# Summary of the method: (§1)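 Broth microdilution adapted from NCCLS M27, in RPMI-1640 with 0.165 M MOPS, pH 7.0. Yeast or mould inoculum at 2×10^3 CFU/ml was mixed 1:1 with DMSO-derived compound solutions (200 to 0.10 μg/ml before mixing) and incubated at 35 °C for 4 to 48 h. MIC was the concentration showing no growth.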
# [2] = system: Aspergillus niger A. 16404; conditions: for Minimal inhibitory concentration (MIC): A. niger A. 16404, RPMI-1640, 35° C.; for Minimal inhibitory concentration(MIC), A. niger A. 16404: RPMI-1640, 35° C., no growth observed
# Summary of the method: as §1
# [3] = system: Torulopsis glabrata B. 16205; conditions: 4 to 48 hours; for Minimal inhibitory concentration (MIC): T. glabrata B. 16205, RPMI-1640, 35° C.; for Minimal inhibitory concentration(MIC), T. glabrata B. 16205: RPMI-1640, 35° C., no growth observed
# Summary of the method: as §1
# [4] = system: Candida krusei K. 11655; conditions: 4 to 48 hours; for Minimal inhibitory concentration (MIC): C. krusei K. 11655, RPMI-1640, 35° C.; for Minimal inhibitory concentration(MIC), C. krusei K. 11655: RPMI-1640, 35° C., no growth observed
# Summary of the method: as §1
# [5] = system: Candida tropicalis A. 13803; conditions: 4 to 48 hours; for Minimal inhibitory concentration (MIC): C. tropicalis A. 13803, RPMI-1640, 35° C.; for Minimal inhibitory concentration(MIC), C. tropicalis A. 13803: RPMI-1640, 35° C., no growth observed
# Summary of the method: as §1
# [6] = system: Candida albicans C1-2; conditions: 4 to 48 hours; for Minimal inhibitory concentration (MIC): C. albicans C1-2, RPMI-1640, 35° C.
# Summary of the method: as §1
# [7] = system: Candida pseudotropicalis K. 11658; conditions: 4 to 48 hours; for Minimal inhibitory concentration (MIC): C. pseudotropicalis K. 11658, RPMI-1640, 35° C.; for Minimal inhibitory concentration(MIC), C. pseudotropicalis K. 11658: RPMI-1640, 35° C., no growth observed
# Summary of the method: as §1
# [8] = system: Trichophyton mentagrophytes A. 9129; conditions: for Minimal inhibitory concentration (MIC): T. mentagrophytes A. 9129, RPMI-1640, 35° C.; for Minimal inhibitory concentration(MIC), T. mentagrophytes A. 9129: RPMI-1640, 35° C., no growth observed
# Summary of the method: as §1
# [9] = system: Candida albicans A. 10231; conditions: 4 to 48 hours; for Minimal inhibitory concentration (MIC): C. albicans A. 10231, RPMI-1640, 35° C.
# Summary of the method: as §1
# [10] = system: Aspergillus furnigatus B. 19119; conditions: for Minimal inhibitory concentration (MIC): A furnigatus B. 19119, RPMI-1640, 35° C.; for Minimal inhibitory concentration(MIC), A furnigatus B. 19119: RPMI-1640, 35° C., no growth observed
# Summary of the method: as §1
# [11] = system: Candida albicans IFO. 1385; conditions: 4 to 48 hours; for Minimal inhibitory concentration (MIC): C. albicans IFO. 1385, RPMI-1640, 35° C.; for Minimal inhibitory concentration(MIC), C. albicans IFO. 1385: RPMI-1640, 35° C., no growth observed
# Summary of the method: as §1
# [12] = system: Trichophyton mentagrophytes B. 32663; conditions: for Minimal inhibitory concentration (MIC): T. mentagrophytes B. 32663, RPMI-1640, 35° C.; for Minimal inhibitory concentration(MIC), T. mentagrophytes B. 32663: RPMI-1640, 35° C., no growth observed
# Summary of the method: as §1
# [13] = system: Candida parapsitosis A. 7330; conditions: 4 to 48 hours; for Minimal inhibitory concentration (MIC): C. parapsitosis A. 7330, RPMI-1640, 35° C.; for Minimal inhibitory concentration(MIC), C. parapsitosis A. 7330: RPMI-1640, 35° C., no growth observed
# Summary of the method: as §1
# [14] = system: Cryptococcus neoformans A. 34144; conditions: for Minimal inhibitory concentration (MIC): Cry. neoformans A. 34144, RPMI-1640, 35° C.; for Minimal inhibitory concentration(MIC), Cry. neoformans A. 34144: RPMI-1640, 35° C., no growth observed
# Summary of the method: as §1
# [15] = system: Cryptococcus neoformans B. 42419; conditions: 4 to 48 hours; for Minimal inhibitory concentration (MIC): Cry. neoformans B. 42419, RPMI-1640, 35° C.; for Minimal inhibitory concentration(MIC), Cry. neoformans B. 42419: RPMI-1640, 35° C., no growth observed
# Summary of the method: as §1
# [16] = RPMI-1640, 35° C., no growth observed
smiles,measurement,setting,value
CC(C)Oc1cccc(C=C(F)OCC2COC(Cn3ccnc3)(c3ccc(F)cc3F)O2)c1 (mixture of isomers) [Ex. 45],Minimal inhibitory concentration (MIC),[1]; 4 to 48 hours,0.39 µg/mL
same,Minimal inhibitory concentration (MIC),[2]; 4 to 48 hours,100 µg/mL
same,Minimal inhibitory concentration (MIC),[3],6.25 µg/mL
same,Minimal inhibitory concentration (MIC),[4],12.5 µg/mL
same,Minimal inhibitory concentration (MIC),[5],50.0 µg/mL
same,Minimal inhibitory concentration (MIC),[6],25.0 µg/mL
same,Minimal inhibitory concentration (MIC),[7],6.25 µg/mL
same,Minimal inhibitory concentration (MIC),[8]; 4 to 48 hours,6.25 µg/mL
same,Minimal inhibitory concentration (MIC),[9],25.0 µg/mL
same,Minimal inhibitory concentration (MIC),[10]; 4 to 48 hours,12.5 µg/mL
same,Minimal inhibitory concentration (MIC),[11],0.39 µg/mL
same,Minimal inhibitory concentration (MIC),[12]; 4 to 48 hours,1.56 µg/mL
same,Minimal inhibitory concentration (MIC),[13],12.5 µg/mL
same,Minimal inhibitory concentration (MIC),[14]; 4 to 48 hours,1.56 µg/mL
same,Minimal inhibitory concentration (MIC),[15],1.56 µg/mL
FC(=Cc1ccc(F)cc1)OCC1COC(Cn2cncn2)(c2ccc(Cl)cc2Cl)O1 (mixture of isomers) [Ex. 77],"Minimal inhibitory concentration(MIC), Cry. neoformans IFM. 40092",[1]; 4 to 48 hours,0.78 µg/mL
same,"Minimal inhibitory concentration(MIC), A. niger A. 16404",[2]; 4 to 48 hours,>100 µg/mL
same,"Minimal inhibitory concentration(MIC), T. glabrata B. 16205",[3],50.0 µg/mL
same,"Minimal inhibitory concentration(MIC), C. krusei K. 11655",[4],12.5 µg/mL
same,"Minimal inhibitory concentration(MIC), C. tropicalis A. 13803",[5],100 µg/mL
same,Minimal inhibitory concentration (MIC),[6],100 µg/mL
same,"Minimal inhibitory concentration(MIC), C. pseudotropicalis K. 11658",[7],6.25 µg/mL
same,"Minimal inhibitory concentration(MIC), T. mentagrophytes A. 9129",[8]; 4 to 48 hours,6.25 µg/mL
same,Minimal inhibitory concentration (MIC),[9],100 µg/mL
same,"Minimal inhibitory concentration(MIC), A furnigatus B. 19119",[10]; 4 to 48 hours,100 µg/mL
same,"Minimal inhibitory concentration(MIC), C. albicans IFO. 1385",[11],25.0 µg/mL
same,"Minimal inhibitory concentration(MIC), T. mentagrophytes B. 32663",[12]; 4 to 48 hours,6.25 µg/mL
same,"Minimal inhibitory concentration(MIC), C. parapsitosis A. 7330",[13],12.5 µg/mL
same,"Minimal inhibitory concentration(MIC), Cry. neoformans A. 34144",[14]; 4 to 48 hours,3.13 µg/mL
same,"Minimal inhibitory concentration(MIC), Cry. neoformans B. 42419",[15],1.56 µg/mL
FC(=Cc1cccc(F)c1)OCC1COC(Cn2ccnc2)(c2ccc(Cl)cc2Cl)O1 (stereo not drawn) [Ex. 15],Minimal inhibitory concentration (MIC),[1]; 4 to 48 hours,≦0.10 μg/ml
same,Minimal inhibitory concentration (MIC),[2]; 4 to 48 hours,1.56 µg/mL
same,Minimal inhibitory concentration (MIC),[3],3.13 µg/mL
same,Minimal inhibitory concentration (MIC),[4],6.25 µg/mL
same,Minimal inhibitory concentration (MIC),[5],25.0 µg/mL
same,Minimal inhibitory concentration (MIC),[6],3.13 µg/mL
same,Minimal inhibitory concentration (MIC),[7],3.13 µg/mL
same,Minimal inhibitory concentration (MIC),[8]; 4 to 48 hours,0.39 µg/mL
same,Minimal inhibitory concentration (MIC),[9],6.25 µg/mL
same,Minimal inhibitory concentration (MIC),[10]; 4 to 48 hours,0.78 µg/mL
same,Minimal inhibitory concentration (MIC),[11],≦0.10 μg/ml
same,Minimal inhibitory concentration (MIC),[12]; 4 to 48 hours,≦0.10 μg/ml
same,Minimal inhibitory concentration (MIC),[13],6.26 µg/mL
same,Minimal inhibitory concentration (MIC),[14]; 4 to 48 hours,0.20 µg/mL
same,Minimal inhibitory concentration (MIC),[15],0.20 µg/mL
FC(=C(c1cc(Cl)cc(Cl)c1)C(F)(F)F)N1CCN(c2ccc(OCC3COC(Cn4ccnc4)(c4ccc(F)cc4F)O3)cc2)CC1 (mixture of isomers) [Ex. 150],"Minimal inhibitory concentration(MIC), Cry. neoformans IFM. 40092",[1],≦0.10 μg/ml
same,"Minimal inhibitory concentration(MIC), A. niger A. 16404",[2],100 µg/mL
same,"Minimal inhibitory concentration(MIC), T. glabrata B. 16205",[3],50.0 µg/mL
same,"Minimal inhibitory concentration(MIC), C. krusei K. 11655",[4],0.78 µg/mL
same,"Minimal inhibitory concentration(MIC), C. tropicalis A. 13803",[5],>100 µg/mL
same,"Minimal inhibitory concentration(MIC), C. albicans C1-2",[6]; [16],>100 µg/mL
same,"Minimal inhibitory concentration(MIC), C. pseudotropicalis K. 11658",[7],0.78 µg/mL
same,"Minimal inhibitory concentration(MIC), T. mentagrophytes A. 9129",[8],3.13 µg/mL
same,"Minimal inhibitory concentration(MIC), C. albicans A. 10231",[9]; [16],>100 µg/mL
same,"Minimal inhibitory concentration(MIC), A furnigatus B. 19119",[10],12.5 µg/mL
same,"Minimal inhibitory concentration(MIC), C. albicans IFO. 1385",[11],0.39 µg/mL
same,"Minimal inhibitory concentration(MIC), T. mentagrophytes B. 32663",[12],≦0.10 μg/ml
same,"Minimal inhibitory concentration(MIC), C. parapsitosis A. 7330",[13],1.56 µg/mL
same,"Minimal inhibitory concentration(MIC), Cry. neoformans A. 34144",[14],1.56 µg/mL
same,"Minimal inhibitory concentration(MIC), Cry. neoformans B. 42419",[15],0.39 µg/mL
